# Reference: PubChem BioAssay AID1259407 (Chemical Carcinogenesis Research Information System (CCRIS), 2018)
# Active and inactive are the calls of the source. The rule behind the calls is not given here.
# System: CCRIS mutagenicity, Ames/micronucleus/aberration tests
# Assay: CCRIS mutagenicity studies
# [1] = Test System: AMES SALMONELLA TYPHIMURIUM, Strain/Indicator: TA98, Metabolic Activation: NONE, Method: PREINCUBATION
# [2] = Test System: AMES SALMONELLA TYPHIMURIUM, Strain/Indicator: TA98, Metabolic Activation: NONE, Method: STANDARD PLATE
# [3] = Test System: AMES SALMONELLA TYPHIMURIUM, Strain/Indicator: TA98, Metabolic Activation: RAT, LIVER, S-9, AROCLOR 1254, Method: STANDARD PLATE
# [4] = Test System: AMES SALMONELLA TYPHIMURIUM, Strain/Indicator: TA100, Metabolic Activation: NONE, Method: PREINCUBATION
# [5] = Test System: AMES SALMONELLA TYPHIMURIUM, Strain/Indicator: TA100, Metabolic Activation: NONE, Method: STANDARD PLATE
# [6] = Test System: AMES SALMONELLA TYPHIMURIUM, Strain/Indicator: TA100, Metabolic Activation: RAT, LIVER, S-9, AROCLOR 1254, Method: STANDARD PLATE
# [7] = Test System: AMES SALMONELLA TYPHIMURIUM, Strain/Indicator: TA1535, Metabolic Activation: NONE, Method: STANDARD PLATE
# [8] = Test System: AMES SALMONELLA TYPHIMURIUM, Strain/Indicator: TA1537, Metabolic Activation: NONE, Method: STANDARD PLATE
# [9] = Test System: AMES SALMONELLA TYPHIMURIUM, Strain/Indicator: TA1537, Metabolic Activation: RAT, LIVER, S-9, AROCLOR 1254, Method: STANDARD PLATE
compound,measurement,setting,value
O=C(CBr)c1ccccc1,mutagenic call,"Test System: AMES SALMONELLA TYPHIMURIUM, Strain/Indicator: TA98, Metabolic Activation: HAMSTER, LIVER, S-9, AROCLOR 1254, Method: STANDARD PLATE",inactive; negative
same,mutagenic call,[1],inactive; negative
same,mutagenic call,[2],inactive; negative
same,mutagenic call,[3],inactive; negative
same,mutagenic call,"Test System: AMES SALMONELLA TYPHIMURIUM, Strain/Indicator: TA98, Metabolic Activation: RAT, LIVER, S-9, PCB, Method: PREINCUBATION",inactive; negative
same,mutagenic call,"Test System: AMES SALMONELLA TYPHIMURIUM, Strain/Indicator: TA100, Metabolic Activation: HAMSTER, LIVER, S-9, AROCLOR 1254, Method: STANDARD PLATE",inactive; negative
same,mutagenic call,[4],inactive; negative
same,mutagenic call,[5],inactive; negative
same,mutagenic call,[6],inactive; negative
same,mutagenic call,"Test System: AMES SALMONELLA TYPHIMURIUM, Strain/Indicator: TA100, Metabolic Activation: RAT, LIVER, S-9, PCB, Method: PREINCUBATION",inactive; negative
same,mutagenic call,"Test System: AMES SALMONELLA TYPHIMURIUM, Strain/Indicator: TA1535, Metabolic Activation: HAMSTER, LIVER, S-9, AROCLOR 1254, Method: STANDARD PLATE",inactive; negative
same,mutagenic call,[7],inactive; negative
same,mutagenic call,"Test System: AMES SALMONELLA TYPHIMURIUM, Strain/Indicator: TA1535, Metabolic Activation: RAT, LIVER, S-9, AROCLOR 1254, Method: STANDARD PLATE",inactive; negative
same,mutagenic call,"Test System: AMES SALMONELLA TYPHIMURIUM, Strain/Indicator: TA1537, Metabolic Activation: HAMSTER, LIVER, S-9, AROCLOR 1254, Method: STANDARD PLATE",inactive; negative
same,mutagenic call,[8],inactive; negative
same,mutagenic call,[9],inactive; negative
same,mutagenic call,"Test System: AMES SALMONELLA TYPHIMURIUM, Strain/Indicator: TA1538, Metabolic Activation: HAMSTER, LIVER, S-9, AROCLOR 1254, Method: STANDARD PLATE",inactive; negative
same,mutagenic call,"Test System: AMES SALMONELLA TYPHIMURIUM, Strain/Indicator: TA1538, Metabolic Activation: NONE, Method: STANDARD PLATE",inactive; negative
same,mutagenic call,"Test System: AMES SALMONELLA TYPHIMURIUM, Strain/Indicator: TA1538, Metabolic Activation: RAT, LIVER, S-9, AROCLOR 1254, Method: STANDARD PLATE",inactive; negative
same,mutagenic call,"Test System: E. COLI, Strain/Indicator: WP2 UVRA, Metabolic Activation: NONE, Method: PREINCUBATION",inactive; negative
same,mutagenic call,"Test System: MOUSE LYMPHOMA, Strain/Indicator: L5178Y (TK+/TK-), Metabolic Activation: NONE, Method: SUSPENSION/PLATE",inactive; negative. reevaluation of results: negative
same,mutagenic call,"Test System: MOUSE LYMPHOMA, Strain/Indicator: L5178Y (TK+/TK-), Metabolic Activation: RAT, LIVER, S-9, AROCLOR 1254, Method: SUSPENSION/PLATE",active; positive. reevaluation of results: inconclusive
CCOC(=O)[C@H]1O[C@@H]1C(=O)N[C@@H](CC(C)C)C(=O)NCCC(C)C,mutagenic call,[1],inactive; negative
same,mutagenic call,[2],inactive; negative
same,mutagenic call,"Test System: AMES SALMONELLA TYPHIMURIUM, Strain/Indicator: TA98, Metabolic Activation: RAT, LIVER, S-9, Method: PREINCUBATION",inactive; negative
same,mutagenic call,"Test System: AMES SALMONELLA TYPHIMURIUM, Strain/Indicator: TA98, Metabolic Activation: RAT, LIVER, S-9, Method: STANDARD PLATE",inactive; negative
same,mutagenic call,[4],inactive; negative
same,mutagenic call,[5],inactive; negative
same,mutagenic call,"Test System: AMES SALMONELLA TYPHIMURIUM, Strain/Indicator: TA100, Metabolic Activation: RAT, LIVER, S-9, Method: PREINCUBATION",inactive; negative
same,mutagenic call,"Test System: AMES SALMONELLA TYPHIMURIUM, Strain/Indicator: TA100, Metabolic Activation: RAT, LIVER, S-9, Method: STANDARD PLATE",inactive; negative
same,mutagenic call,[7],inactive; negative
same,mutagenic call,"Test System: AMES SALMONELLA TYPHIMURIUM, Strain/Indicator: TA1535, Metabolic Activation: RAT, LIVER, S-9, Method: STANDARD PLATE",inactive; negative
same,mutagenic call,[8],inactive; negative
same,mutagenic call,"Test System: AMES SALMONELLA TYPHIMURIUM, Strain/Indicator: TA1537, Metabolic Activation: RAT, LIVER, S-9, Method: STANDARD PLATE",inactive; negative
same,mutagenic call,"Test System: E. COLI, Strain/Indicator: WP2 UVRA, Metabolic Activation: NONE, Method: STANDARD PLATE",inactive; negative
same,mutagenic call,"Test System: E. COLI, Strain/Indicator: WP2 UVRA, Metabolic Activation: RAT, LIVER, S-9, Method: STANDARD PLATE",inactive; negative
O=[N+]([O-])c1ccc(/C=C/c2cccc(CO)n2)o1,mutagenic call,"Test System: UDS HUMAN FIBROBLASTS, Strain/Indicator: THY INCORP (NON-S-PHASE), Metabolic Activation: NONE, Method: AUTORADIOGRAPHY",active; positive
O=[N+]([O-])c1ccc(/C=C/c2cccc([N+](=O)[O-])c2)cc1,mutagenic call,"Test System: AMES SALMONELLA TYPHIMURIUM, Strain/Indicator: TA98 (NR), Metabolic Activation: NONE, Method: STANDARD PLATE",active; positive
same,mutagenic call,"Test System: AMES SALMONELLA TYPHIMURIUM, Strain/Indicator: TA98 (NR), Metabolic Activation: S-9, Method: STANDARD PLATE",inactive; negative
same,mutagenic call,[2],active; positive
same,mutagenic call,"Test System: AMES SALMONELLA TYPHIMURIUM, Strain/Indicator: TA98, Metabolic Activation: S-9, Method: STANDARD PLATE",active; positive
same,mutagenic call,"Test System: AMES SALMONELLA TYPHIMURIUM, Strain/Indicator: TA100 (NR), Metabolic Activation: NONE, Method: STANDARD PLATE",inactive; negative
same,mutagenic call,"Test System: AMES SALMONELLA TYPHIMURIUM, Strain/Indicator: TA100 (NR), Metabolic Activation: S-9, Method: STANDARD PLATE",inactive; negative
same,mutagenic call,[5],active; positive
same,mutagenic call,"Test System: AMES SALMONELLA TYPHIMURIUM, Strain/Indicator: TA100, Metabolic Activation: S-9, Method: STANDARD PLATE",active; positive
C1CN1c1nc(N2CC2)nc(N2CC2)n1,mutagenic call,[2],active; positive
same,mutagenic call,[5],active; positive
same,mutagenic call,"Test System: CHINESE HAMSTER V-79, Strain/Indicator: V-79/6-THIOGUANINE, Metabolic Activation: NONE, Method: FLASK ASSAY",active; positive
same,mutagenic call,"Test System: E. COLI, Strain/Indicator: WP2 (HCR), Metabolic Activation: NONE, Method: STANDARD PLATE",active; positive
Cc1ccc(NO)cc1[N+](=O)[O-],mutagenic call,"Test System: AMES SALMONELLA TYPHIMURIUM, Strain/Indicator: TA98, Metabolic Activation: NONE, Method: SUSPENSION/PLATE",inactive; negative
same,mutagenic call,"Test System: AMES SALMONELLA TYPHIMURIUM, Strain/Indicator: TA98, Metabolic Activation: RAT, LIVER, S-9, PHENOBARBITAL AND 5,6-BENZOFLAVONE, Method: SUSPENSION/PLATE",inactive; negative
same,mutagenic call,"Test System: AMES SALMONELLA TYPHIMURIUM, Strain/Indicator: TA100, Metabolic Activation: NONE, Method: SUSPENSION/PLATE",inactive; negative
same,mutagenic call,"Test System: AMES SALMONELLA TYPHIMURIUM, Strain/Indicator: TA100, Metabolic Activation: RAT, LIVER, S-9, PHENOBARBITAL AND 5,6-BENZOFLAVONE, Method: SUSPENSION/PLATE",inactive; negative
CC(C)(C)OCC1CO1 (stereo not given),mutagenic call,"Test System: AMES SALMONELLA TYPHIMURIUM, Strain/Indicator: TA100, Metabolic Activation: HAMSTER, LIVER, S-9, AROCLOR 1254 (30%), Method: PREINCUBATION",active; positive
same,mutagenic call,[4],active; positive
same,mutagenic call,"Test System: AMES SALMONELLA TYPHIMURIUM, Strain/Indicator: TA100, Metabolic Activation: RAT, LIVER, S-9, AROCLOR 1254 (30%), Method: PREINCUBATION",active; positive
same,mutagenic call,"Test System: AMES SALMONELLA TYPHIMURIUM, Strain/Indicator: TA1535, Metabolic Activation: HAMSTER, LIVER, S-9, AROCLOR 1254 (30%), Method: PREINCUBATION",active; positive
same,mutagenic call,"Test System: AMES SALMONELLA TYPHIMURIUM, Strain/Indicator: TA1535, Metabolic Activation: NONE, Method: PREINCUBATION",active; positive
same,mutagenic call,"Test System: AMES SALMONELLA TYPHIMURIUM, Strain/Indicator: TA1535, Metabolic Activation: RAT, LIVER, S-9, AROCLOR 1254 (30%), Method: PREINCUBATION",active; positive
CN(CC(=O)NN)c1ccc2ccccc2c1,mutagenic call,[2],inactive; negative
same,mutagenic call,[3],inactive; negative
same,mutagenic call,[5],inactive; negative
same,mutagenic call,[6],inactive; negative
same,mutagenic call,[8],inactive; negative
same,mutagenic call,[9],inactive; negative
